A word on the GI50: it is the concentration that inhibits growth by half.

SMILES strings stand for the structures.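 Test compounds were applied to cells in 96-well plates for 48 hours at 5 doses. At the GI50, growth is halved.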 Calls of active or inactive are those of the source. Rule as the data show it: active = GI50 up to about 1.1 µM and inactive = higher.

The record followed here is ChEMBL document CHEMBL1201862, “PubChem BioAssay data set” (2004).

Test systems include NCI-H226; HCT-15; NCI-H522; K562; NCI-H460; HL-60; UACC-257; LOX IMVI; HOP-62; NCI-H23; TK-10; HCC 2998; SK-MEL-28; SR; SNB-19; OVCAR-3; SK-OV-3; CAKI-1.
Common to all, as to test: DTP human tumour cell line panel, 48 h

Consider `Nc1ccn(CCNCCn2cnc3nc(N)[nH]c(=O)c32)c(=O)n1`, for which the GI50 was > 100 µM (inactive) in the assay with NCI-H226; above 100 µM with HCT-15; > 100 µM (inactive) in the assay with NCI-H522; > 100 µM (inactive) with K562; > 100 µM (inactive) in the assay on NCI-H460; > 100 µM (inactive) in the assay with HL-60. Besides, the GI50 in the assay on UACC-257, with LOX IMVI, with HOP-62, in the assay with NCI-H23, in the assay on TK-10 and in the assay on HCC 2998 was > 100 µM (inactive) each time. For the same compound, the GI50 in the assay with SK-MEL-28, with SR, in the assay on SNB-19 and with OVCAR-3 was > 100 µM (inactive) throughout.
Regarding `COc1ccc(CNc2nc3c(NC(C)=O)cc(C(F)(F)F)cc3nc2-c2ccccc2)cc1OC`, the GI50 was above 100 µM in the assay on HCT-15; 40.7 µM (inactive) in the assay with SK-OV-3; 2.69 µM (inactive) in the assay on NCI-H522; > 100 µM (inactive) in the assay on K562; > 100 µM (inactive) in the assay with NCI-H460; 31.6 µM (inactive) in the assay with CAKI-1. The GI50 in the assay with HL-60 was > 100 µM (inactive); in the assay on UACC-257, > 100 µM (inactive); in the assay on LOX IMVI, > 100 µM (inactive); in the assay with HOP-62 it was 42.1 µM (inactive); in the assay on NCI-H23 it was 59 µM (inactive); with TK-10 it was 32.1 µM (inactive). Further, the GI50 was > 100 µM (inactive) with HCC 2998, 19 µM (inactive) in the assay on SK-MEL-28, 45.6 µM (inactive) in the assay on SNB-19 and 93.1 µM (inactive) with OVCAR-3.
On to `Cc1ccc(C(c2c(O)c3ccccc3n(-c3ccccc3)c2=O)c2c(O)c3ccccc3n(-c3ccccc3)c2=O)cc1`, for which the GI50 is > 100 µM (inactive) in the assay on NCI-H226; above 100 µM in the assay on HCT-15; > 100 µM (inactive) with NCI-H522; > 100 µM (inactive) in the assay with K562; > 100 µM (inactive) in the assay on CAKI-1; > 100 µM (inactive) in the assay with LOX IMVI. Besides, the GI50 in the assay with HOP-62 is > 100 µM (inactive); in the assay with NCI-H23 it was > 100 µM (inactive); in the assay on TK-10, > 100 µM (inactive); in the assay on HCC 2998 it was > 100 µM (inactive); with SK-MEL-28 it was > 100 µM (inactive); in the assay on SR, 62.4 µM (inactive). In addition, the GI50 in the assay on SNB-19 and with OVCAR-3 was > 100 µM (inactive) in each case.
`CC1(C)OCN(c2ccc(S(N)(=O)=O)cc2)Cn2c1nc1ccccc12`: the GI50 in the assay on NCI-H226 is > 100 µM (inactive); with HCT-15 it was above 100 µM; with SK-OV-3, > 100 µM (inactive); in the assay with NCI-H522, > 100 µM (inactive); in the assay on K562, > 100 µM (inactive); in the assay on NCI-H460, > 100 µM (inactive). Besides, the GI50 in the assay on HL-60, in the assay on UACC-257, in the assay with LOX IMVI, in the assay with HOP-62, with NCI-H23 and in the assay with TK-10 was > 100 µM (inactive) throughout. The GI50 with HCC 2998, in the assay on SK-MEL-28, with SR, in the assay with SNB-19 and with OVCAR-3 was > 100 µM (inactive) throughout.
For `COc1ccc(-c2c(N)[n+]([O-])c3ccccc3[n+]2[O-])cc1OC`, the GI50 in the assay on NCI-H226 was > 100 µM (inactive); in the assay with HCT-15, above 100 µM; in the assay with SK-OV-3, > 100 µM (inactive); in the assay with NCI-H522 it was > 100 µM (inactive); in the assay with K562 it was > 100 µM (inactive); in the assay on NCI-H460, > 100 µM (inactive). Further, the GI50 in the assay on CAKI-1, in the assay with HL-60, in the assay with UACC-257, in the assay on HOP-62, in the assay on NCI-H23 and with SK-MEL-28 was > 100 µM (inactive) throughout. Besides, the GI50 in the assay on SR, in the assay on SNB-19 and with OVCAR-3 was > 100 µM (inactive) in each case.
Consider `O=C(CCc1nnc(S)[nH]1)Nc1cc(Cl)c(Cl)cc1Cl`, for which the GI50 is > 100 µM (inactive) in the assay with NCI-H226; above 100 µM in the assay with HCT-15; > 100 µM (inactive) in the assay with SK-OV-3; > 100 µM (inactive) in the assay with NCI-H522; > 100 µM (inactive) in the assay on K562; > 100 µM (inactive) in the assay on NCI-H460. Further, the GI50 in the assay on CAKI-1, in the assay on HL-60, in the assay with UACC-257, in the assay with LOX IMVI, in the assay on HOP-62 and in the assay on NCI-H23 was > 100 µM (inactive) in each case. The GI50 in the assay on TK-10, in the assay on HCC 2998, in the assay on SK-MEL-28, with SNB-19 and with OVCAR-3 was > 100 µM (inactive) each time.
In the case of `Cc1ccc(/C=C/C(=O)c2sc(C(N)=S)nc2C)cc1`, the GI50 with NCI-H226 was > 100 µM (inactive); with HCT-15 it was above 100 µM; in the assay on SK-OV-3 it was > 100 µM (inactive); in the assay on NCI-H522, > 100 µM (inactive); with K562 it was > 100 µM (inactive); in the assay on NCI-H460 it was > 100 µM (inactive). Besides, the GI50 in the assay with CAKI-1, with HL-60, in the assay on UACC-257, in the assay with LOX IMVI, in the assay with HOP-62 and in the assay on NCI-H23 was > 100 µM (inactive) in each case. The GI50 with TK-10, in the assay on HCC 2998, in the assay with SK-MEL-28 and in the assay with OVCAR-3 was > 100 µM (inactive) throughout.
As to `Cn1c2ccccc2c2cc(-c3ccccc3)c3c(c21)C(=O)c1ccccc1C3=O`, the GI50 in the assay on NCI-H226 is 22 µM (inactive); in the assay on SK-OV-3, 38.3 µM (inactive); with NCI-H522, 15.2 µM (inactive); in the assay on K562, 21.4 µM (inactive); in the assay on CAKI-1, 28.3 µM (inactive); with HL-60, 9.35 µM (inactive). Besides, the GI50 is 18 µM (inactive) in the assay on UACC-257; 40.5 µM (inactive) in the assay with HOP-62; 5.79 µM (inactive) in the assay on NCI-H23; 48.3 µM (inactive) in the assay with TK-10; 48.8 µM (inactive) in the assay with HCC 2998; 14.7 µM (inactive) in the assay with SK-MEL-28. Besides, the GI50 with SR was 4.79 µM (inactive); in the assay on SNB-19, 61.1 µM (inactive); in the assay on OVCAR-3, 11.9 µM (inactive).
With `Cc1c(Cl)ccc2c1NC(=O)C2(O)CC(=O)c1ccc2ccccc2c1` (stereo unspecified), the GI50 in the assay with NCI-H226 is 24.4 µM (inactive); in the assay on HCT-15 it was 41.1 µM; in the assay on SK-OV-3, > 100 µM (inactive); in the assay on NCI-H522, 24.7 µM (inactive); in the assay on K562, 28.6 µM (inactive); in the assay on NCI-H460, 67.1 µM (inactive). Also, the GI50 with CAKI-1 is 42 µM (inactive); in the assay with UACC-257, 55.8 µM (inactive); with LOX IMVI, 44.7 µM (inactive); in the assay with HOP-62, > 100 µM (inactive); in the assay with NCI-H23 it was 28.2 µM (inactive); in the assay with TK-10, > 100 µM (inactive). In addition, the GI50 with HCC 2998 was > 100 µM (inactive); with SK-MEL-28, 48.2 µM (inactive); with SNB-19, 45.8 µM (inactive); in the assay on OVCAR-3, 33.4 µM (inactive).
In the case of `CCCCN(CCCC)CC(C(=O)Nc1ccc([N+](=O)[O-])cc1[N+](=O)[O-])/C(C)=N\NC(=O)c1ccncc1` (stereo unspecified), the concentration for 50% growth inhibition (GI50) is above 100 µM with HCT-15; > 100 µM (inactive) in the assay on SK-OV-3; > 100 µM (inactive) in the assay on NCI-H522; > 100 µM (inactive) with K562; > 100 µM (inactive) in the assay on NCI-H460; > 100 µM (inactive) with CAKI-1. Further, the GI50 in the assay on HL-60, in the assay on UACC-257, in the assay with LOX IMVI, in the assay on HOP-62, with NCI-H23 and with TK-10 was > 100 µM (inactive) each time. Moreover, the GI50 in the assay on HCC 2998, in the assay with SK-MEL-28, in the assay with SNB-19 and in the assay on OVCAR-3 was > 100 µM (inactive) throughout.
In the case of `CC(C)(C)C(C#N)(C#N)c1ccc(C(C#N)(C#N)C(C)(C)C)nn1`, the concentration for 50% growth inhibition (GI50) in the assay on HCT-15 was above 100 µM; in the assay with SK-OV-3, 41.3 µM (inactive); in the assay with NCI-H522, > 100 µM (inactive); with K562, > 100 µM (inactive); with NCI-H460 it was > 100 µM (inactive); in the assay with CAKI-1, 83 µM (inactive). Also, the GI50 in the assay on HL-60, in the assay on UACC-257, in the assay on LOX IMVI, with HOP-62, with NCI-H23 and in the assay with TK-10 was > 100 µM (inactive) throughout. The GI50 in the assay on HCC 2998 is > 100 µM (inactive); in the assay on SK-MEL-28, > 100 µM (inactive); in the assay on SNB-19 it was 63.4 µM (inactive); with OVCAR-3, > 100 µM (inactive).
`CN(C(=O)c1ccc(Cl)cc1)C(=S)N1CCN(c2ccccn2)CC1`: the GI50 with NCI-H226 is 37.2 µM (inactive); in the assay on HCT-15 it was above 100 µM; in the assay on SK-OV-3, > 100 µM (inactive); in the assay with NCI-H522, > 100 µM (inactive); in the assay on K562, > 100 µM (inactive); in the assay with NCI-H460, > 100 µM (inactive). For the same compound, the GI50 with CAKI-1, in the assay on HL-60, with UACC-257, in the assay with LOX IMVI, in the assay with HOP-62 and with NCI-H23 was > 100 µM (inactive) each time. In addition, the GI50 in the assay on TK-10, in the assay on SK-MEL-28, with SR, in the assay with SNB-19 and in the assay with OVCAR-3 was > 100 µM (inactive) in each case.
